Assay results as given in article PMC10246557, “Kinetic and inhibition studies on human Jumonji-C (JmjC) domain-containing protein 5” (RSC Chemical Biology, 2023).
Like-named read-outs stand apart in the source and are kept apart here. Ends that are not written are not given here.

Columns and labels:
JMJD5 = details: cited from earlier work; for K m: 10.0 μM JMJD5, 50 mM HEPES pH 7.5, read-out: Km JMJD5 (MALDI-TOF MS assay)
human JMJD5 [1] = biological target: T1, human JMJD5 (Homo sapiens, UniProt Q8N371); experiment: SPE-MS JMJD5 turnover and kinetic assay (RPS6_128–148 hydroxylation); assay type: biochemical; details: for k app cat: calculated from vmax; for JMJD5 (%): RPS6_128–148 hydroxylation with the compound as cosubstrate: absence of 2OG, JMJD5 0.15 μM, 2OG derivative 400 μM, Fe(II) 20 μM, RPS6_128–148 2.0 μM
T1 construct: made in house; host or cells: Escherichia coli BL21(DE3)

human AspH [2] = details: cited from earlier work; for AspH (%): substrate hydroxylation with the compound as cosubstrate: absence of 2OG, AspH 0.1 μM, 2OG derivative 330 μM, Fe(II) 50 μM, hFX-CP101–119 2.0 μM
PHD2 = system: PHD2; design: method as in PMID 18952043; details: PHD2 1.0 nM, cited from earlier work
human JMJD5 [3] = biological target: T1, human JMJD5; experiment: SPE-MS JMJD5 inhibition assay; assay type: biochemical; details: JMJD5 0.15 μM, 2OG 2.0 μM, Fe(II) 2.0 μM, LAA 100 μM, RPS6_128–148 2.0 μM; read-out: IC50 JMJD5
Description: Solutions of the small-molecules (100% DMSO) were dry dispensed across 384 well polypropylene V-bottom assay microplates (Greiner) in an approximately three-fold and 11-point dilution series (100 μM inhibitor top concentration; the final DMSO assay concentration was kept constant at 0.5%v/v) using an ECHO 550 acoustic dispenser (Labcyte). […] Each reaction was performed in technical duplicates in adjacent wells of the assay plates; additionally, assays were performed in two independent duplicates on different days using different inhibitor solutions.
The Enzyme Mixture (25 μL per well), containing 0.3 μM His6-thioredoxin-tagged JMJD5 in buffer (50 mM MOPS, pH 7.5), was dispensed across the inhibitor-containing 384-well plates with a multidrop dispenser (ThermoFischer Scientific) at 20 °C under an ambient atmosphere. The plates were subsequently centrifuged (1000 rpm, 5 s) and incubated for 15 min at 20 °C. […] The plates were centrifuged (1000 rpm, 5 s) and, after incubating for 30 min, the enzyme reaction was stopped by the addition of 10%v/v aqueous formic acid (5 μL per well). The plates were then centrifuged (1000 rpm, 30 s) and analyzed by MS.
Z′-Factors were calculated according to the cited literature using Microsoft Excel.[61]

human KDM4E [4] = biological target: T2, human KDM4E (Homo sapiens, UniProt B2RXH2); experiment: KDM4E SPE-MS turnover and kinetic assay (H3 K9(me3) peptide demethylation); assay type: biochemical; details: for KDM4E (%): substrate demethylation with the compound as cosubstrate: absence of 2OG, KDM4E 0.15 μM, 2OG derivative 330 μM, Fe(II) 50 μM
T2 sequence (B2RXH2 1-506): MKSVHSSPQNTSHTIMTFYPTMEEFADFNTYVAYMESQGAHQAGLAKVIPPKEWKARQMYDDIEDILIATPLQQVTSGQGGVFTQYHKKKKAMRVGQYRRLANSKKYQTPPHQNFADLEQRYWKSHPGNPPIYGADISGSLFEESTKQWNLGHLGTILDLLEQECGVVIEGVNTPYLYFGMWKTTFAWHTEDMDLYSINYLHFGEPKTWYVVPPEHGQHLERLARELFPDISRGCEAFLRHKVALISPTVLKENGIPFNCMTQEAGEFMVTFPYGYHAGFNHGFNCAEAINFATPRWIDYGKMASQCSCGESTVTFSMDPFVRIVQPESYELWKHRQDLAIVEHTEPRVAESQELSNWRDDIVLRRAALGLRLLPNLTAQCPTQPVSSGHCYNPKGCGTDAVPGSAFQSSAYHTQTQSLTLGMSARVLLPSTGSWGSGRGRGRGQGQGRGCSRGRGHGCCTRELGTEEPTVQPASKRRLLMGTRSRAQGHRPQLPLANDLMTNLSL

human KDM4E [5] = biological target: T2, human KDM4E; experiment: KDM4E SPE-MS inhibition assay; assay type: biochemical; details: KDM4E 0.15 μM, peptide 10.0 μM, LAA 100 μM, FAS 10 μM, 2OG 10 μM
Description: KDM4E turnover and inhibition assays were performed as reported using recombinant human KDM4E and a histone 3 K9(me3) derivative (i.e. […](me3)STGGIA)[41] as substrate.[95] […]

human FIH [6] = details: FIH 0.15 μM, cited from earlier work; for FIH (%): substrate hydroxylation with the compound as cosubstrate: absence of 2OG, 2OG derivative 330 μM, Fe(II) 50 μM, HIF-1α788–822 5.0 μM
human FIH [7] = system: human FIH; design: method as in ref 10 (ESI); details: FIH 0.15 μM, HIF-1α788-822 5.0 μM, 2OG 10 μM; ref 10 (ESI); cited from earlier work
human AspH [8] = system: human AspH; design: method as in ref 9 (ESI); details: AspH 0.05 μM, hFX-CP101-119 1.0 μM, 2OG 3.0 μM; ref 9 (ESI); cited from earlier work
KDM4C = system: KDM4C; design: method as in PMID 21859681; details: KDM4C 0.5 μM, ARTAQTARK(me3)STGGIA substrate; cited from earlier work
[9] = 0.15 μM JMJD5, 50 mM MOPS pH 7.5, 20 °C, 100 μM LAA present
[10] = 0.15 μM JMJD5, 50 mM MOPS pH 7.5, 20 °C, LAA present
[11] = AspH315–758 0.1 μM, hFX–CP101–119 substrate

T1 sequence (Q8N371 whole entry): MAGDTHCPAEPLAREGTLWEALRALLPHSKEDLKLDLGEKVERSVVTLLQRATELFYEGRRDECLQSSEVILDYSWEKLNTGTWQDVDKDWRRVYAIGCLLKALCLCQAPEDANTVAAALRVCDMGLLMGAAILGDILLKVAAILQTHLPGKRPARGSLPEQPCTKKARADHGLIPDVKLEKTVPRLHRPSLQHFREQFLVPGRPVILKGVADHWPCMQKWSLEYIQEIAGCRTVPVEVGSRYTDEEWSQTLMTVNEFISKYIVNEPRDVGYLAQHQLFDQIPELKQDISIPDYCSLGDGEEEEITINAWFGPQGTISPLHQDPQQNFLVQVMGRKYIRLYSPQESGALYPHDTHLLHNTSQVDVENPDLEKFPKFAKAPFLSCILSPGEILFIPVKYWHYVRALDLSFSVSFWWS

| Compound | K m (JMJD5) [µM] | JMJD5 (%): RPS6_128–148 hydroxylation with the compound as cosubstrate (human JMJD5 [1]) | IC50 (human JMJD5 [3]) [µM] | KDM4E (%): substrate demethylation with the compound as cosubstrate (human KDM4E [4]; ARTAQTARK(me3)STGGIA 10.0 μM) | IC50 (human KDM4E [5]) [µM] | FIH (%): substrate hydroxylation with the compound as cosubstrate (human FIH [6]) | IC50 (human FIH [7]) [µM] | AspH (%): substrate hydroxylation with the compound as cosubstrate (human AspH [2]) | IC50 (human AspH [8]) [µM] | other results |
| --- | --- | --- | --- | --- | --- | --- | --- | --- | --- | --- |
| O=C(O)CNC(=O)c1ncc(-c2cccc(Cl)c2)cc1O [vadadustat] |  |  |  |  |  |  |  |  |  | IC50 (JMJD5; read-out: IC50 JMJD5 (MALDI-TOF MS assay)): ~54 µM |
| RPS6_129–144: truncated version of the RPS6_128–148 substrate peptide used in MALDI-TOF MS assays (VPRRLGPKRASRIRKL-NH2; UniProt P62753 129-144, looked up, fragment) | ~60 |  |  |  |  |  |  |  |  |  |
| ammonium iron(II) sulfate hexahydrate [Fe(II)] | ~2.7 |  |  |  |  |  |  |  |  | v app max (human JMJD5 [1]; [9]): 0.75 ± 0.03 nM/s; k app cat (human JMJD5 [1]; [10]): 0.005 ± 0.0002 s⁻¹; K app m (human JMJD5 [1]; 0.15 μM JMJD5, absence of LAA): 0.46 ± 0.11 µM; v app max (human JMJD5 [1]; 0.15 μM JMJD5, absence of LAA): 0.73 ± 0.05 nM/s; k app cat (human JMJD5 [1]; 0.15 μM JMJD5, absence of LAA): 0.0049 ± 0.0004 s⁻¹; K m (human AspH [2]; [11]): 1.42 ± 0.16 µM; k cat (human AspH [2]; [11]): 0.19 ± 0.03 s⁻¹; K m (PHD2; biotin-DLEMLAPYIPMDDDFQ substrate): 0.89 ± 0.07 µM |
| O=C(O)C(=O)c1ccc(C(=O)O)c(Br)c1 [2OG derivative 31] |  | < 1% | > 50 | < 1% | > 50 | < 1% | > 50 | ~ 8% | > 50 |  |
| O=C(O)C(=O)c1ccc(C(=O)O)c(F)c1 [2OG derivative 29] |  | < 1% | > 50 | < 1% | > 50 | < 1% | > 50 | ~ 8% | > 50 |  |
| O=C(O)CCC(=O)C(=O)O [2OG, 2-oxoglutarate, reference compound] | ~9.5 | ~ 40% |  | ~ 70% |  | ~ 50% |  |  |  | v app max (human JMJD5 [1]; [9]): 0.84 ± 0.03 nM/s; K app m (human JMJD5 [1]; [10]): 0.29 ± 0.04 µM; k app cat (human JMJD5 [1]; [10]): 0.0056 ± 0.0002 s⁻¹; JMJD5-catalyzed RPS6_128–148 hydroxylation, time course (human JMJD5 [1]; after 50 min, 10 μM cosubstrate, 0.15 μM JMJD5, 10 μM Fe(II), 2.0 μM RPS6_128–148): ~50%; K app m (human KDM4E [4]; 0.15 μM KDM4E, ARTAQTARK(me3)STGGIA 10 μM): 4.2 ± 1.1 µM; v app max (human KDM4E [4]; 0.15 μM KDM4E, ARTAQTARK(me3)STGGIA 10.0 μM, 50 mM MES pH 7.0, 20 °C): 20.6 ± 1.3 nM/s; K m (human FIH [6]; HIF-1α788–822 substrate): 0.8 ± 0.1 µM; k cat (human FIH [6]; HIF-1α788–822 substrate): 0.04 ± 0.01 s⁻¹; K m (human AspH [2]; [11]): 0.60 ± 0.09 µM; K m (KDM4C): 2.6 ± 0.1 µM; k cat (KDM4C): 0.075 ± 0.001 s⁻¹; K m (PHD2; biotin-[…] substrate): 0.35 ± 0.03 µM |
| Cc1cc(C(=O)O)ccc1C(=O)C(=O)O [2OG derivative 32] |  | < 1% | > 50 | < 1% | > 50 | < 1% | > 50 | ~ 5% | > 50 |  |
| O=C(O)C(=O)C1(C(=O)O)CC1 [2OG derivative 25] |  | < 1% | > 50 | < 1% | > 50 | < 1% | > 50 | < 1% | 3.3 ± 1 |  |
